One data set has as its target B. duncani DHFR-TS (Babesia duncani, UniProt A0AAD9UQZ8). The data set is classed as biochemical.
The next data set addresses B. microti DHFR-TS (Babesia microti, UniProt A0A1R4AAV1). The data set is classed as biochemical.
Data set [1] relates to B. duncani. Conditions: continuous in vitro culture in human erythrocytes; cited from earlier work.
Data set [2] deals with B. duncani. Nature of the data set: microbe, parasite or virus in culture. Type of data set: cell-based, Babesia duncani.
The nature of data set [3]: MTT cytotoxicity on HeLa cells. Type of data set: cell-based, human. Conditions: human, HeLa cells, read-out: HeLa LC50. The procedure:
(§1) HeLa, HepG2, HEK and HCT116 cell lines were obtained from the American Type Culture Collection and maintained in Dulbecco’s modified Eagle’s medium (Invitrogen 11995-065) containing 25 mM glucose, 1 mM sodium pyruvate and supplemented with 5 mM HEPES, 10% FBS and penicillin-streptomycin (50 U ml^−1 penicillin, 50 µg ml^−1 streptomycin). An estimated 20,000 cells per well were seeded in a 96-well tissue culture plate and allowed to adhere. After 24 h, cells were treated with either vehicle alone (0.1% dimethylsulfoxide) or vehicle containing different concentrations of the target drugs using a 2-fold serial dilution starting at 10 mM. Dimethylsulfoxide at 10% was used as a positive control. Cells were incubated at 37 °C for 72 h, after which each well was incubated with 0.5 mg ml^−1 of MTT reagent (Cayman Chemical, 10009591) for 4 h in the dark at 37 °C. Following addition of 100 µl dimethylsulfoxide to each well, absorbance was measured at optical density (OD)590 nm using Spectra max plate reader. From the obtained OD values, percent cell viability was calculated by normalizing to the mean of 10% dimethylsulfoxide wells (set as 100% toxicity) and the mean of the vehicle control wells (set as 0% toxicity). Dose-response curves were plotted using GraphPad Prism v9.1.2

Data set [4] in a line: MTT cytotoxicity on HepG2 cells. Type of data set: cell-based, human. The conditions noted are these: human, HepG2 cells, read-out: HepG2 LC50. The protocol:
as §1

Data set [5] is described as follows: MTT cytotoxicity on HEK293 cells. Type of data set: cell-based, human. The conditions noted are these: human, HEK293 cells, read-out: HEK293 LC50. The procedure: as §1
Data set [6] is described as follows: MTT cytotoxicity on HCT116 cells. Type of data set: cell-based, human. Conditions: human, HCT116 cells, read-out: HCT LC50. The protocol: as §1
The next data set relates to HeLa. Nature of the data set: MTT cytotoxicity on HeLa cells. The data set is classed as cell-based, human. Conditions: 72 h, read-out: HeLa LC50. The protocol: as §1
For the next data set, the system named is HepG2. Nature of the data set: MTT cytotoxicity on HepG2 cells. The data set is classed as cell-based, human. The conditions noted are these: 72 h, read-out: HepG2 LC50. The protocol: as §1
A further data set concerns HEK293. Nature of the data set: MTT cytotoxicity on HEK293 cells. The data set is classed as cell-based, human. The conditions noted are these: 72 h, read-out: HEK293 LC50. The procedure:
as §1

Another data set has as its system HCT116. Briefly: MTT cytotoxicity on HCT116 cells. The conditions noted are these: 72 h, read-out: HCT LC50. Type of data set: cell-based, human. The protocol:
as §1

Another data set relates to human cell lines. Nature of the data set: In vitro therapeutic index of antifolates against human cell lines. The data set is classed as cell-based. Conditions: human cell lines versus B. duncani IC50. The protocol: Drug efficacy against B. duncani in vitro was determined using the SYBR Green assay as previously described. Briefly, a culture of B. duncani-infected human erythrocytes at 0.1% parasitemia and 5% haematocrit was maintained for 60 h in vitro in a 96-well plate in the absence or presence of varying concentrations of the drug of interest at concentrations ranging between 0.6 nM and 10 µM. An equal volume of lysis buffer (0.008% saponin, 0.08% Triton X-100, 20 mM Tris-HCl (pH 7.5) and 5 mM EDTA) containing SYBR Green-I (0.01%) was added to each well and the plate incubated at 37 °C for 1 h in the dark. Fluorescence counts in each well were measured at 480 nm (excitation) and 540 nm (emission) using a BioTek Synergy Mx microplate reader and background fluorescence from control wells containing uninfected RBCs was subtracted. A dose-response curve representing the fluorescence counts against the logarithm of the drug concentration was fitted by nonlinear regression and used to determine the IC50 of each drug. Analysis was conducted using GraphPad Prism 9.2.1. For each drug, two independent experiments, each with biological triplicates, were conducted. Data are shown as mean ± s.d. […]

A further data set relates to BdDHFR-TS. Nature of the data set: Inhibition of DHFR enzymatic activity of recombinant BdDHFR-TS. The data set is classed as biochemical, B. duncani. Conditions: 0.1 μM enzyme, 300 μM DHF, 300 μM NADPH. The procedure:
(§2) The IC50 was determined from a sigmoidal dose-response curve using GraphPad Prism v9.1.2. […]
(§3) denatured (2 X 20 min in 0.5N NaOH; 1.5 M NaCl) and neutralized (2 X 20 min in 0.5 M Tris-HCl, pH 7.5; 1.5 M NaCl). Southern blotting was done on nylon membrane, positively charged
(§4) (Cat. No. 1417240, Roche) using 10X SSC and followed by UV crosslinking of transferred DNA.
(§5) The membrane was hybridized overnight at 26 °C with the telomere probe and then washed twice for 5 min each in 2X SSC and for 20 min each in 0.5X SSC at 26°C. Bound probe was detected with disodium-2-chloro-5(4 methoxyspiro (1,2-dioxetane-3.2´-[5-chloro]tricycle[3.3.1.1.3.7] decan)-4-yl)-1-phenyl phosphate (CDP-StarTM, Cat. No.12041677001, Roche) according to the manufacturer’s instructions. The membrane was visualized using an Amersham ImageQuant 800 system (GE Healthcare Bio-Science AB, Uppsala, Sweden).
(§6) Cloning, Expression, and Purification of recombinant B. duncani and B. microti DHFR-TS […]
(§7) duncani (BdDHFR-TS) and B. microti (BmDHFR-TS) were cloned into pMAL-c4x by GenScript USA Inc. Both enzymes were expressed as fusion proteins with N’-terminal maltose-binding protein (MBP) tag. Constructs of pMAL-c4x-BdDHFR-TS and pMAL-c4x-BmDHFR-TS were transformed by heat shock into E. coli BL-21(DE3). E. coli BL-21(DE3) harboring pMAL-c4x-DHFR-TS was grown overnight in 2 ml LB ampicillin (100 µg/mL). […]

The test system of a further data set is BmDHFR-TS. Nature of the data set: Inhibition of DHFR enzymatic activity of recombinant BmDHFR-TS. Type of data set: biochemical, B. microti. Conditions: 0.1 μM enzyme, 300 μM DHF, 300 μM NADPH. The protocol: as §2, §3, §4, §5, §6, §7

As usually defined, the kcat is the number of substrate molecules converted per active site and unit of time at saturation. One may read the Km as the substrate concentration at which the rate is half of its maximum. For orientation: IC50 means the concentration needed to halve the response being measured.

Read-outs that look alike come from different tables or passages of the source. Where only a bound is given, the exact number is not on record here.

Sequence of B. duncani DHFR-TS (A0AAD9UQZ8 1-514): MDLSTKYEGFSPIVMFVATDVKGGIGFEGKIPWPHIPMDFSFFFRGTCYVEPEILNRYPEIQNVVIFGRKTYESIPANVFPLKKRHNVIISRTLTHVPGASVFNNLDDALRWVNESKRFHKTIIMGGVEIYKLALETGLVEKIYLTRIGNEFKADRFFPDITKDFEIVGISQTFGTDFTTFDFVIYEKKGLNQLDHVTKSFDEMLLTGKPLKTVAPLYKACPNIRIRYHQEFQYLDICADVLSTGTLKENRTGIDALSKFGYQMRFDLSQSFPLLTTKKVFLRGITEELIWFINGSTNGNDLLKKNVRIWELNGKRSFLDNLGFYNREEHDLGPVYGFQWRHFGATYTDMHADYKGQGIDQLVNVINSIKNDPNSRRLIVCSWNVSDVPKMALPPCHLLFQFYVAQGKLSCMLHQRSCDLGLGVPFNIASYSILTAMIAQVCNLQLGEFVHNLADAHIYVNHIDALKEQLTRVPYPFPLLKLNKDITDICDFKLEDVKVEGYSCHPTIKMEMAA
Sequence of B. microti DHFR-TS (A0A1R4AAV1 1-502): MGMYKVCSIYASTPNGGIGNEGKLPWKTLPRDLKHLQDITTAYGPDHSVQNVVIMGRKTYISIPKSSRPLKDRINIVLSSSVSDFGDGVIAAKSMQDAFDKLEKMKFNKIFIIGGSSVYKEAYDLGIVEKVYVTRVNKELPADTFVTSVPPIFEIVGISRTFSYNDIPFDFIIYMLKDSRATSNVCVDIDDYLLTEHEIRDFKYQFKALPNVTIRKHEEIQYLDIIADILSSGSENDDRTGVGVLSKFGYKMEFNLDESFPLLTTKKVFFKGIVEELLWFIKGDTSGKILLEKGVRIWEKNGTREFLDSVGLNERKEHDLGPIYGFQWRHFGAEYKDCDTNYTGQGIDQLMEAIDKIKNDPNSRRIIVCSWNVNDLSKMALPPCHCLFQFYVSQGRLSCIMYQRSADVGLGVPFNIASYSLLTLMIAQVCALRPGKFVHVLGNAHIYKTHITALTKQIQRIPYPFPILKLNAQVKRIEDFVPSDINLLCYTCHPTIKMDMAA

`NC(=O)C1=CN([C@@H]2O[C@H](COP(=O)(O)OP(=O)(O)OC[C@H]3O[C@@H](n4cnc5c(N)ncnc54)[C@H](OP(=O)(O)O)[C@@H]3O)[C@@H](O)[C@H]2O)C=CC1` [NADPH]: the Vmax stood at 9.8 ± 2.1 μmol · min^-1 ×10^4 at B. duncani DHFR-TS and 10.1 ± 1.6 μmol · min^-1 ×10^4 on B. microti DHFR-TS. In addition, the kcat amounted to 0.4 ± 0.1 s⁻¹ at B. duncani DHFR-TS and 1.7 ± 0.3 s⁻¹ at B. microti DHFR-TS. Besides, the values for the Michaelis-Menten constant (Km) on B. duncani DHFR-TS (complementary ligand at 300 μM) and at B. microti DHFR-TS (complementary ligand at 300 μM) were 32.9 ± 1 µM and 27.3 ± 0.2 µM, respectively.
As to `C=C[C@H]1C[N@@]2CC[C@H]1C[C@H]2[C@H](O)c1ccnc2ccc(OC)cc12` [quinine], the “susceptibility of B. duncani” value with B. duncani [1] was “low susceptibility”.
On to `CC[C@H]1OC(=O)[C@H](C)[C@@H](O[C@H]2C[C@@](C)(OC)[C@@H](O)[C@H](C)O2)[C@H](C)[C@@H](O[C@@H]2O[C@H](C)C[C@H](N(C)C)[C@H]2O)[C@](C)(O)C[C@@H](C)CN(C)[C@H](C)[C@@H](O)[C@]1(C)O` [azithromycin], for which the “susceptibility of B. duncani” value with B. duncani [1] was “low susceptibility”.
As to `CCC[C@@H]1C[C@@H](C(=O)N[C@@H]([C@H]2O[C@H](SC)[C@H](O)[C@@H](O)[C@H]2O)[C@H](C)Cl)N(C)C1` [clindamycin], the “susceptibility of B. duncani” value with B. duncani [1] was “low susceptibility”.
Regarding `CCc1nc(N)nc(N)c1-c1ccc(Cl)cc1` [Pyrimethamine], the 50% inhibitory concentration (IC50) in the data set on B. duncani [2] (Babesia duncani, Erythrocyte, 60 h, read-out: B. duncani IC50) came to 0.94 ± 0.017 µM. For the same molecule, the CC50 at 72 h in data set [3] is > 900 µM; in data set [4], 1690 µM; in data set [5] it was 500 µM; in data set [6] it was > 30 µM.
For `O=C1C(O)=C([C@H]2CC[C@H](c3ccc(Cl)cc3)CC2)C(=O)c2ccccc21` [Atovaquone], the IC50 in the data set with B. duncani [2] (Babesia duncani, Erythrocyte, read-out: IC50 of atovaquone, parental isolate WA1) came to 0.072 µM. The “susceptibility of B. duncani” value with B. duncani [1] was “low susceptibility”.
For `CC1(C)N=C(N)N=C(N)N1OCCCOc1cc(Cl)c(Cl)cc1Cl` [WR-99210], the IC50 in the data set with B. duncani [2] (read-out: B. duncani IC50) was 0.00058 µM; in the data set on BdDHFR-TS, 0.0039 µM; in the data set on BmDHFR-TS, 0.0068 µM. The CC50 was > 900 µM with HeLa, 1100 µM in the data set with HepG2, 1000 µM in the data set with HEK293 and 1050 µM in the data set on HCT116. Further, the “TI (therapeutic index)” value in the data set with human cell lines is >15K.

The values are drawn from paper PMC10159843, “Babesia duncani multi-omics identifies virulence factors and drug targets” (Nature Microbiology, 2023).
